The term pIC50 denotes the negative decadic logarithm of the IC50, by convention in mol/L. A higher pIC50 goes with a small IC50. Broadly, the inhibition is the drop in the measured response relative to a control, in per cent.

The text below walks through data of ChEMBL document CHEMBL3351435, “New pyrrole derivatives with potent tubulin polymerization inhibiting activity as anticancer agents including hedgehog-dependent cancer” (J Med Chem, 2014).

One assay deals with Tubulin. Kind of assay: Inhibition of tubulin (unknown origin) polymerization incubated 15 mins prior to GTP addition by spectrophotometry. The assay is classed as protein-complex assay, Homo sapiens.
Another assay deals with MCF7. Nature of the assay: Cytotoxicity against human MCF7 cells after 96 hrs by Giemsa staining-based light microscopy. The assay is classed as functional, cell-based. Particulars: MCF7, 96 h.
Assay [1] concerns the target T1, Tubulin (Homo sapiens) (UniProt P68371+Q9H4B7+P0DPH7+P68366+Q13509+Q71U36+P04350+Q3ZCM7+P07437+P68363+Q9BQE3+Q6PEY2+Q13885+Q9BVA1+Q9BUF5). Kind of assay: Displacement of [3H]colchicine from tubulin (unknown origin) at 5 uM after 10 mins. The assay is classed as protein-complex assay.
In assay [2] the target is T1, Tubulin (Homo sapiens). Kind of assay: Inhibition of tubulin (unknown origin) polymerization at 20 uM incubated 15 mins prior to GTP addition by spectrophotometry. The assay is classed as protein-complex assay.

pIC50: −log10 of the molar value. Activity calls are given as the source filed them. No cut-off for these calls is given here.

`COc1cc(C(=O)c2ccn(S(=O)(=O)c3ccccc3)c2)cc(OC)c1OC` had a pIC50 on Tubulin of 4.80.

As for `COc1cc(C(=O)c2ccn(-c3cc(OC)c(OC)c(OC)c3)c2)cc(OC)c1OC`, the pIC50 at Tubulin was below 4.40.

As for `COc1ccc(-n2ccc(C(=O)c3cc(OC)c(OC)c(OC)c3)c2)cc1N`, the pIC50 was 5.89 against Tubulin and 6.33 in the assay with MCF7. This compound also registered an inhibition on Tubulin (Homo sapiens) [1] of 89%.

In the case of `COc1cc(C(=O)c2ccn(-c3ccccc3F)c2)cc(OC)c1OC`, the pIC50 against Tubulin and in the assay with MCF7 was 6.00 in each case. Also, the inhibition at Tubulin (Homo sapiens) [1] came to 77%.

Consider `COc1cc(C(=O)c2ccn(-c3ccccc3N)c2)cc(OC)c1OC`, for which, at Tubulin, the pIC50 is 5.17.

As to `COc1cc(C(=O)c2ccn(-c3cccc(N(C)C)c3)c2)cc(OC)c1OC`, the pIC50 is 5.82 against Tubulin and 6.00 in the assay with MCF7. The compound also registered an inhibition on Tubulin (Homo sapiens) [1] of 60%.

`COc1ccc(-n2ccc(C(=O)c3cc(OC)c(OC)c(OC)c3)c2)cc1[N+](=O)[O-]` gave a pIC50 with MCF7 of 6.08.

The compound `COc1cc(C(=O)c2ccn(-c3ccc(O)cc3)c2)cc(OC)c1OC` showed a pIC50 in the assay on MCF7 of 6.35. The inhibition on Tubulin (Homo sapiens) [1] was found to be 59%.

For the compound `COc1cc(C(=O)c2ccn(-c3ccccc3O)c2)cc(OC)c1OC`, the figures for the pIC50 at Tubulin and in the assay with MCF7 were 5.77 and 6.28, respectively. For the same compound, at Tubulin (Homo sapiens) [1], the inhibition amounted to 67%.

For the compound `COc1cc(C(=O)c2ccn(-c3cccc(OC(C)C)c3)c2)cc(OC)c1OC`, the pIC50 against Tubulin is 5.60; with MCF7, 6.60. On Tubulin (Homo sapiens) [1], this compound displayed an inhibition of 17%.

Consider `COc1ccc(-n2ccc(C(=O)c3cc(OC)c(OC)c(OC)c3)c2)cc1OC`, for which the pIC50 is 5.68 against Tubulin and 7.00 in the assay on MCF7. At Tubulin (Homo sapiens) [1], this compound had an inhibition of 56%.

With `COc1cc(C(=O)c2ccn(-c3ccc(F)cc3)c2)cc(OC)c1OC`, the pIC50 on Tubulin is 5.85; in the assay with MCF7, 6.72. The inhibition on Tubulin (Homo sapiens) [1] is 78%.

On to `COc1cc(C(=O)c2ccn(-c3ccccc3C)c2)cc(OC)c1OC`, for which the pIC50 against Tubulin was 4.89.

Turning to `COc1cc(C(=O)c2ccn(-c3cccc([N+](=O)[O-])c3)c2)cc(OC)c1OC`, the pIC50 against Tubulin was 5.05.

For `COc1cc(C(=O)c2ccn(-c3cccc(F)c3)c2)cc(OC)c1OC`, the pIC50 at Tubulin was 5.68; in the assay on MCF7 it was 5.89. This compound showed an inhibition on Tubulin (Homo sapiens) [1] of 55%.

As to `COc1cc(C(=O)c2ccn(-c3cccc(OCc4ccccc4)c3)c2)cc(OC)c1OC`, the inhibition entry on Tubulin (Homo sapiens) [2] is “inactive”.

The compound `COc1cc(C(=O)c2cc[nH]c2)cc(OC)c1OC` showed a pIC50 against Tubulin below 4.40.

With `COc1cc(C(=O)c2ccn(-c3ccc(Cl)cc3)c2)cc(OC)c1OC`, the pIC50 on Tubulin is 5.64; with MCF7, 6.70. At Tubulin (Homo sapiens) [1], this compound registered an inhibition of 73%.

As for `COc1cc(C(=O)c2ccn(-c3ccc(N)cc3)c2)cc(OC)c1OC`, the pIC50 against Tubulin was 5.89; in the assay with MCF7, 7.82. At Tubulin (Homo sapiens) [1], this compound yielded an inhibition of 81%.

With `COc1ccc(C(=O)c2ccn(-c3cc(OC)c(OC)c(OC)c3)c2)cc1OC(C)C`, the inhibition result on Tubulin (Homo sapiens) [2] is “inactive”.

As for `COc1cc(C(=O)c2ccn(C)c2)cc(OC)c1OC`, the pIC50 against Tubulin is below 4.40.

Regarding `COc1cc(C(=O)c2ccn(-c3cccc(O)c3)c2)cc(OC)c1OC`, the figures for the pIC50 against Tubulin and in the assay with MCF7 were 5.92 and 6.40, respectively. This compound showed an inhibition on Tubulin (Homo sapiens) [1] of 86%.

Consider `COc1cc(C(=O)c2ccn(-c3ccccc3[N+](=O)[O-])c2)cc(OC)c1OC`, for which the inhibition entry on Tubulin (Homo sapiens) [2] is “inactive”.

Consider `COc1cc(C(=O)c2ccn(-c3ccccc3Cl)c2)cc(OC)c1OC`, for which the pIC50 was 5.06 against Tubulin and 5.35 in the assay with MCF7.

`COc1cc(C(=O)c2ccn(-c3ccccc3OC(C)C)c2)cc(OC)c1OC`: at Tubulin, the pIC50 was 5.21.

As for `COc1cc(C(=O)c2ccn(-c3cccc(Cl)c3)c2)cc(OC)c1OC`, the pIC50 against Tubulin is 5.66; in the assay on MCF7, 6.22. Further, the inhibition at Tubulin (Homo sapiens) [1] was found to be 58%.

In turn, `COc1cc(C(=O)c2ccn(Cc3ccccc3)c2)cc(OC)c1OC` had a pIC50 against Tubulin below 4.40.

Consider `COc1cc(C(=O)c2ccn(-c3cccc(C)c3)c2)cc(OC)c1OC`, for which the pIC50 at Tubulin was 6.02; with MCF7 it was 7.30. Further, the inhibition on Tubulin (Homo sapiens) [1] came out at 79%.
